Test results: patent US8735414B2 (priority 2009, dated 2014)

What was measured:
[1] = system: bicistronic HCV replicon (replicon RNA, GenBank Accession No. AJ242654); test: HCV Replicon Assay; format: cell-based; details: Hepatitis C virus, 72 h, read-out: Replicon IC50

For `C[C@H](NS(=O)(=O)c1cnc(-c2c(C#N)c3cc(Cl)ccc3n2C2CCC2)nc1)C(F)(F)F` [compound 454, 2-(5-chloro-3-cyano-1-cyclobutyl-1H-indol-2-yl)-N-[(2S)-1,1,1-trifluoropropan-2-yl]pyrimidine-5-sulfonamide], the IC50 [1] was under 500 nM and the melting point was 232 to 234 °C.

`N#Cc1c(-c2ccc(S(=O)(=O)Nc3ccccc3)cn2)n(C2CCC2)c2cc(OC(F)F)c(F)cc12` [compound 791, 6-[3-cyano-1-cyclobutyl-6-(difluoromethoxy)-5-fluoro-1H-indol-2-yl]-N-phenylpyridine-3-sulfonamide] showed an IC50 [1] of 2000 to 5000 nM and a melting point of 178 to 179 °C.

Compound `C[C@H](NS(=O)(=O)c1ccc(-c2c(C#N)c3ccc(C(F)(F)F)cc3n2-c2ncccn2)nc1)C(F)(F)F` [compound 950, 6-[3-cyano-1-(pyrimidin-2-yl)-6-(trifluoromethyl)-1H-indol-2-yl]-N-[(2S)-1,1,1-trifluoropropan-2-yl]pyridine-3-sulfonamide] has an IC50 [1] of under 500 nM and a melting point of 206 to 210 °C.

For `C[C@H](NS(=O)(=O)c1cnc(-c2c(C#N)c3ccc(F)cc3n2C2CCCCC2)nc1)C1CC1` [compound 499, 2-(3-cyano-1-cyclohexyl-6-fluoro-1H-indol-2-yl)-N-[(1S)-1-cyclopropylethyl]pyrimidine-5-sulfonamide], the IC50 [1] was under 500 nM and the melting point was 169 to 170 °C.

`Cc1cnc(-n2c(-c3ccc(S(=O)(=O)N[C@@H](C)C(F)(F)F)cn3)c(C#N)c3cc(F)c(C)cc32)s1` [compound 1017, 6-[3-cyano-5-fluoro-6-methyl-1-(5-methyl-1,3-thiazol-2-yl)-1H-indol-2-yl]-N-[(2S)-1,1,1-trifluoropropan-2-yl]pyridine-3-sulfonamide] gave an IC50 [1] of under 500 nM and a melting point of 223.1 to 228.1 °C.

For `N#Cc1c(-c2ncc(S(=O)(=O)NC(CF)CF)cn2)n(C2CCCC2)c2cc(F)ccc12` [compound 166, 2-(3-cyano-1-cyclopentyl-6-fluoro-1H-indol-2-yl)-N-(1,3-difluoropropan-2-yl)pyrimidine-5-sulfonamide], the IC50 [1] was under 500 nM and the melting point was 167 to 169 °C.

`Cc1cc2c(cc1F)c(C#N)c(-c1ccc(S(=O)(=O)N[C@@H](C)C(F)(F)F)cn1)n2-c1ccc(F)nc1` [compound 1015, 6-[3-cyano-5-fluoro-1-(6-fluoropyridin-3-yl)-6-methyl-1H-indol-2-yl]-N-[(2S)-1,1,1-trifluoropropan-2-yl]pyridine-3-sulfonamide] gave an IC50 [1] of under 500 nM and a melting point of 246.8 to 252.7 °C.

Compound `Cc1cc2c(C#N)c(-c3ccc(S(=O)(=O)NC(CF)CF)cn3)n(C3CCCC3)c2cc1F` [compound 482, 6-(3-cyano-1-cyclopentyl-6-fluoro-5-methyl-1H-indol-2-yl)-N-(1,3-difluoropropan-2-yl)pyridine-3-sulfonamide] has an IC50 [1] of under 500 nM and a melting point of 207 to 211 °C.

`C[C@H](C1CC1)n1c(-c2ccc(NS(=O)(=O)C(C)(C)C)nc2)c(C(N)=O)c2cc(F)c(OC(F)F)cc21` [compound 1085, 2-{6-[(tert-butylsulfonyl)amino]pyridin-3-yl}-1-[(1R)-1-cyclopropylethyl]-6-(difluoromethoxy)-5-fluoro-1H-indole-3-carboxamide] gave an IC50 [1] of under 500 nM and a melting point of 228 to 230 °C.

`Cc1cc2c(cc1F)c(C#N)c(-c1ccc(S(=O)(=O)N[C@@H](C)C(F)(F)F)cn1)n2-c1ncccc1C` [compound 739, 6-[3-cyano-5-fluoro-6-methyl-1-(3-methylpyridin-2-yl)-1H-indol-2-yl]-N-[(2S)-1,1,1-trifluoropropan-2-yl]pyridine-3-sulfonamide] gave an IC50 [1] of under 500 nM and a melting point of 219 to 221 °C.

`Cc1cc2c(cc1Br)c(C#N)c(-c1ccc(S(=O)(=O)N[C@@H](C)C(F)(F)F)cn1)n2C1CCCC1` [compound 675, 6-(5-bromo-3-cyano-1-cyclopentyl-6-methyl-1H-indol-2-yl)-N-[(2S)-1,1,1-trifluoropropan-2-yl]pyridine-3-sulfonamide] showed an IC50 [1] of under 500 nM and a melting point of 204 to 204.5 °C.

In the case of `COc1ccc2c(C#N)c(-c3ncc(S(=O)(=O)N[C@@H](C)C(F)(F)F)cn3)n(C3CCCC3)c2c1` [compound 406, 2-(3-cyano-1-cyclopentyl-6-methoxy-1H-indol-2-yl)-N-[(2S)-1,1,1-trifluoropropan-2-yl]pyrimidine-5-sulfonamide], the IC50 [1] is reported as under 500 nM and the melting point is reported as 211 to 212 °C.

`Cc1ccc2c(C#N)c(-c3ccc(S(=O)(=O)N[C@H](C)C(F)(F)F)cn3)n(C(C)C)c2c1` [compound 210, 6-[3-cyano-6-methyl-1-(propan-2-yl)-1H-indol-2-yl]-N-[(2R)-1,1,1-trifluoropropan-2-yl]pyridine-3-sulfonamide] gave an IC50 [1] of under 500 nM and a melting point of 211 to 216 °C.

Compound `Cc1ccc2c(C#N)c(-c3ccc(S(=O)(=O)N[C@H](C)C(F)(F)F)cn3)n(C3CCC3)c2c1` [compound 192, 6-(3-cyano-1-cyclobutyl-6-methyl-1H-indol-2-yl)-N-[(2R)-1,1,1-trifluoropropan-2-yl]pyridine-3-sulfonamide] has an IC50 [1] of under 500 nM and a melting point of 204 to 208 °C.

Work on `CCCn1c(-c2ncc(S(=O)(=O)NC(CF)CF)cn2)c(C#N)c2ccc(OC(F)F)cc21` [compound 232, 2-[3-cyano-6-(difluoromethoxy)-1-propyl-1H-indol-2-yl]-N-(1,3-difluoropropan-2-yl)pyrimidine-5-sulfonamide] yielded an IC50 [1] of under 500 nM and a melting point of 177 to 179 °C.

`C[C@@H](NS(=O)(=O)c1ccc(-c2c(C#N)c3ccc(C4CCC4)cc3n2C2CCCC2)nc1)C(F)(F)F` [compound 343, 6-(3-cyano-6-cyclobutyl-1-cyclopentyl-1H-indol-2-yl)-N-[(2R)-1,1,1-trifluoropropan-2-yl]pyridine-3-sulfonamide] showed an IC50 [1] of 2000 to 5000 nM and a melting point of 176 to 178 °C.

With `CC(C)(C)S(=O)(=O)Nc1ccc(-c2c(C#N)c3c(F)cc(C4CC4)cc3n2C2CCCCC2)nc1` [compound 1092, N-[6-(3-cyano-1-cyclohexyl-6-cyclopropyl-4-fluoro-1H-indol-2-yl)pyridin-3-yl]-2-methylpropane-2-sulfonamide] the IC50 [1] was under 500 nM and the melting point was 252 to 255 °C.

For `C[C@H](NS(=O)(=O)c1cnc(-c2c(C#N)c3ccc(OC(F)F)cc3n2-c2ccccc2)nc1)C(F)(F)F` [compound 611, 2-[3-cyano-6-(difluoromethoxy)-1-phenyl-1H-indol-2-yl]-N-[(2S)-1,1,1-trifluoropropan-2-yl]pyrimidine-5-sulfonamide], the IC50 [1] was under 500 nM and the melting point was 216 to 218 °C.

`Cc1cc2c(cc1F)c(C#N)c(-c1ccc(S(=O)(=O)N[C@@H](C)C(F)(F)F)cn1)n2-c1sccc1C` [compound 1000, 6-[3-cyano-5-fluoro-6-methyl-1-(3-methylthiophen-2-yl)-1H-indol-2-yl]-N-[(2S)-1,1,1-trifluoropropan-2-yl]pyridine-3-sulfonamide] gave an IC50 [1] of under 500 nM and a melting point of 197 to 203.8 °C.

Compound `C[C@H](NS(=O)(=O)c1ccc(-c2c(C(N)=O)c3cc(F)c(Cl)cc3n2C2CCC2)nc1)C(F)(F)F` [compound 736, 6-chloro-1-cyclobutyl-5-fluoro-2-(5-{[(2S)-1,1,1-trifluoropropan-2-yl]sulfamoyl}pyridin-2-yl)-1H-indole-3-carboxamide] has an IC50 [1] of under 500 nM and a melting point of 241 to 243 °C.
